Test results taken from BigSolDB 2.1.

Cc1ccc(C)c(O)c1
Conditions	solubility (mole fraction)
in ethyl acetate, 282.85 K	0.414
in ethyl acetate, 289.95 K	0.449
in ethyl acetate, 298.45 K	0.494
in ethyl acetate, 304.35 K	0.529
in ethyl acetate, 309.95 K	0.563
in ethyl acetate, 314.75 K	0.596
in ethyl acetate, 329.05 K	0.713
in methanol, 281.05 K	0.273
in methanol, 284.75 K	0.291
in methanol, 289.15 K	0.315
in methanol, 293.75 K	0.342
in methanol, 299.45 K	0.381
in methanol, 305.85 K	0.425
in methanol, 307.25 K	0.435
in methanol, 314.25 K	0.492
in methanol, 317.25 K	0.522
in methanol, 321.15 K	0.563
in n-butanol, 281.15 K	0.308
in n-butanol, 285.65 K	0.331
in n-butanol, 289.9 K	0.354
in n-butanol, 294.45 K	0.38
in n-butanol, 298.9 K	0.408
in n-butanol, 304.95 K	0.449
in n-butanol, 311.65 K	0.501
in n-butanol, 317.25 K	0.551
in n-butanol, 322.75 K	0.608
in n-butanol, 331.2 K	0.706
in n-hexanol, 282.6 K	0.325
in n-hexanol, 288.75 K	0.356
in n-hexanol, 293.25 K	0.378
in n-hexanol, 296.65 K	0.4
in n-hexanol, 300.35 K	0.424
in n-hexanol, 310.75 K	0.498
in n-hexanol, 321.65 K	0.598
in n-hexanol, 326.55 K	0.652
in n-hexanol, 331.05 K	0.707
in n-hexanol, 335.35 K	0.764
